# Patent US8173606B2, “Sulfated oligosaccharide derivatives” (Progen Pharmaceuticals Limited, priority 2004, dated 2012)
# Tests used:
# [1] = target: T1, heparanase (Homo sapiens, UniProt Q9Y251); experiment: Heparanase inhibition, Microcon ultrafiltration assay; format: biochemical; conditions: 3H labelled HS, pH 5.0, 22° C., 2.5 h
# T1 sequence (Q9Y251 158-543 limits assumed): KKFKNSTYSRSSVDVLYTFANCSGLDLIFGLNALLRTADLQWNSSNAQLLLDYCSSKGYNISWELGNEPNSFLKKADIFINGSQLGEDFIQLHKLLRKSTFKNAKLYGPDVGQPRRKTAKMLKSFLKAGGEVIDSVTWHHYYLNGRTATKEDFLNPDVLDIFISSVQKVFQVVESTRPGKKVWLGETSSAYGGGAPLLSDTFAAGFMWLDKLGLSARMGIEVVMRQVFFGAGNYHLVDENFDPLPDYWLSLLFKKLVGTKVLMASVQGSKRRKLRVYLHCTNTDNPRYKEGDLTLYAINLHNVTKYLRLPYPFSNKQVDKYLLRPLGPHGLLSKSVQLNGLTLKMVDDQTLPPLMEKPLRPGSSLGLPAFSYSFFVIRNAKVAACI
# T1 sequence (Q9Y251 36-109 limits assumed): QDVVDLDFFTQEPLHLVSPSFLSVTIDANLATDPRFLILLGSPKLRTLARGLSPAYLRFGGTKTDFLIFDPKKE
# Experimental: The heparanase assays were performed using a Microcon ultrafiltration assay. The assays rely on the principle of physically separating heparan sulfate (HS) that has been digested by heparanase from native HS to determine heparanase activity. The assay uses ultrafiltration devices (Microcon YM-10) to separate the smaller heparanase-cleaved HS fragments from native HS.
# A reaction was set up with a volume of 90 μL, • 40 mM acetate buffer (pH 5.0) • 0.1 mg/mL BSA • 90 ng heparanase • 2.5 μM ^3H labelled HS • various concentrations of inhibitors.
# The reactions were set up with all components except the ^3H labelled HS and allowed to equilibrate for 10 min at 22° C. The assays were then initiated by adding the HS and immediately 20 μL was taken, mixed with 80 μL of 10 mM phosphate (pH 7.0) and the 100 μL transferred to a Microcon YM-10 concentrator which was then centrifuged at approximately 14000 g for 5 min. The solution that passed through the membrane (filtrate) was retained. This sample was considered the time=0 sample. The assays (now 70 μL in volume) were allowed to react at 22° C. for 2.5 h and then the filtration step was repeated for three aliquots of 20 μL from each assay.
# The time=0 filtrate and the three 2.5 h filtrate samples were counted for ^3H. The difference between the time=0 and the averaged 2.5 h samples gave the amount of heparanase activity. All inhibition assays were run with a heparanase standard assay which was identical to the assay composition above except no inhibitor was present and the amount of heparanase inhibition in the other assays determined by comparison with this standard.
# [2] = Pharmacokinetic studies of 35S-labelled compounds after iv administration; conditions: rat; for AUC0-12 h / C0 / Cl* (apparent) / Vd* (apparent) / t1/2* (apparent): in vivo, iv, 2.5 mg/kg; for k* (apparent): iv bolus 2.5 mg/kg
# Experimental: The polyol precursors for PG500, 501, 503, 504, 506 and PI-88 (2 mg of each) were desiccated under vacuum over P2O5 for 3 days. Into each vial was syringed 50 μL of a stock solution of 1.77 mg (2.0 mCi) of ^35SO3.pyridine complex and 2 mg SO3.Me3N in 300 μL of anhydrous DMF (Aldrich, redried over freshly ignited 3 A molecular sieves). A further 600 μL of anhydrous DMF was added to the SO3 vial and was distributed to each sample vial. The samples were heated to 60° for 66 hr. SO3.Me3N (14 mg in 300 μL anhydrous DMF) was added to each vessel and the resulting solutions were heated to 60° overnight. The vials were cooled to room temperature and stored at −80° C. awaiting purification.
# Each sample was quenched by addition of Na2CO3 (sat. aqu. adjusted to pH 8-9), evaporated to dryness and subjected to SEC (Biogel P2, 2.6×90 cm, flow rate 30 mL/hr, 5 min/fraction). Fractions containing desired material were detected using a G-M counter and DMB test followed by CE.
# Male Sprague Dawley rats (250-350 g) were used. The animals were allowed free access to food and water before and during the experiments, during which they were maintained unrestrained in metabolism cages. Rats were anaesthetized with isoflurane (Forthane®). A catheter was inserted in the external jugular vein via an incision in the neck, and was passed under the skin to a second incision in the skin of the back (midline vicinity of the scapulae). This was then exteriorized with the protection of a light metal spring. The incision was closed and the spring fixed to the skin with Michel sutures so that the rats had full range of movement. The animals were carefully monitored during recovery (1-4 h).
# All doses were administered as a bolus intravenous injection of 2.5 mg/kg in a dose volume of 2 mL/kg. The total amount of radioactivity administered to each rat was 0.5-10 μCi. The dose level used in this study is 10-fold lower than the no-effect dose previously established for acute toxicity of PI-88. Blood samples (˜250 μL) were collected predose and at 5, 15, 30, 45 min, and 1, 1.5, 2, 4, 8, 12, 24, 36 and 48 h after dosing. The blood samples were immediately centrifuged and the plasma collected. At completion of the experiments, the animals were killed by a lethal overdose of IV pentobarbitone anaesthetic (Nembutal®). Urine was collected from each animal at intervals of 0-12 h, 12-24 h and 24-48 h after dosing. Cage washings (˜15 mL of deionised water) were also collected. At the end of the experiment, bladder contents were aspirated from each animal and added to the 24-48 h voidings. Feces were collected over the same time intervals as the urine.
# Aliquots of plasma (100 μL), urine and cage washings (500 μL) were transferred directly to 6 mL polypropylene scintillation vials for determination of radioactivity. Feces collected during each time period (from one animal dosed with each compound) were weighed and homogenised in 4 volumes of deionised water using a mechanical homogeniser. Approximately 1 g (accurately weighed) of this slurry was transferred to a 20 mL glass scintillation vial, 2 mL of tissue solubiliser added and the vials capped and incubated at 60° C. for at least 24 h. Radioactivity was measured following mixing of samples with Packard Ultima Gold liquid scintillation counting cocktail (2.0 mL for plasma and dose, 5.0 mL for urine and cage washings, 10 mL for feces). Counting was conducted on a Packard Tr-Carb liquid scintillation counter. Any result less than three times the background was considered less than the lower limit of quantitation not used in calculations. Plasma, urine and cage washings were counted in triplicate within 5 days of collection and were not corrected for radiochemical decay. Feces were processed as a batch at the completion of the study and the counts from these samples were corrected for radiochemical decay.
Substance,IC50 [1],AUC0-12 h [2],C0 [2],Cl* (apparent) [2],Vd* (apparent) [2],t1/2* (apparent) [2],k* (apparent) [2]
Benzyl Glycoside Polysulfate [PG500],1830 ± 483 nM,12.6 ± 1.2 μg-eq/h · mL,20.5 ± 1.3 μg-eq/mL,199 ± 13.2 mL/h/kg,38.4 ± 3.8 mL,49.8 ± 1.2 min,0.836 ± 0.024 h⁻¹
Octyl Glycoside Polysulfate [PG501],1640 ± 406 nM,29.7 ± 3.4 μg-eq/h · mL,35.6 ± 3.1 μg-eq/mL,83.6 ± 9.1 mL/h/kg,22.9 ± 2.2 mL,66 ± 5.4 min,0.633 ± 0.053 h⁻¹
